In PubChem BioAssay (NCI) one finds GI50 and TGI data, which are given here for eleven compounds.

Some test systems named below: HCT-116 colon; HL-60(TB) leukemia; K-562 leukemia; COLO 205 colon; OVCAR-4 ovarian; DU-145 prostate; MALME-3M melanoma; HS 578T breast.
Assay in all cases: growth of human tumour cells (NCI), 48 h

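Values below derive from 48-hour exposures of cells grown in 96-well plates, with endpoints linearly interpolated between the two concentrations bracketing the appropriate inhibition level. At the GI50, growth is halved. Definition used: TGI = concentration required for complete inhibition of growth.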 Where only a bound is given, the exact number is not on record here.

For `NC(N)=N/N=C/c1c(-c2ccc(Cl)c([N+](=O)[O-])c2)nc2n1CCS2`, the GI50 in the assay with HCT-116 colon is 1.62 µM; in the assay with HL-60(TB) leukemia, 2.34 µM; in the assay with K-562 leukemia, 3.96 µM; in the assay with COLO 205 colon, 15.1 µM; in the assay on OVCAR-4 ovarian it was 14.7 µM; with DU-145 prostate, 14.5 µM. The TGI in the assay with HCT-116 colon came to 2.97 µM; with HL-60(TB) leukemia, 6.27 µM; in the assay with K-562 leukemia, 16.6 µM; in the assay with COLO 205 colon, 39.8 µM; in the assay with OVCAR-4 ovarian it was 32.8 µM; with DU-145 prostate, 28.2 µM.
Regarding `COc1ccccc1/C=C\C(=O)c1ccccc1`, the GI50 was 3.4 µM in the assay with HCT-116 colon; 5.06 µM in the assay on HL-60(TB) leukemia; 2.57 µM with K-562 leukemia; 12.9 µM with MALME-3M melanoma; 11.9 µM in the assay with COLO 205 colon; 4.31 µM in the assay with OVCAR-4 ovarian. Also, in the assay on DU-145 prostate, the GI50 was 8.38 µM. In addition, the TGI in the assay with HCT-116 colon was 11.6 µM; in the assay with HL-60(TB) leukemia it was 45.6 µM; with K-562 leukemia, 13.9 µM; with MALME-3M melanoma it was 26.2 µM; in the assay on COLO 205 colon, 24.3 µM; with OVCAR-4 ovarian it was 17.1 µM. In the assay with DU-145 prostate, this compound came in with a TGI of 20.5 µM.
On to `Cc1cc(=O)oc2cc(OCCn3c(C)nn(-c4ccc(Cl)cc4)c3=O)ccc12`, for which the GI50 in the assay with HCT-116 colon was 3.57 µM; with K-562 leukemia, 1.29 µM; in the assay with MALME-3M melanoma, 3.85 µM; in the assay on COLO 205 colon, 2.39 µM; in the assay on HS 578T breast, 2.82 µM; with DU-145 prostate, 3.9 µM. The TGI with HCT-116 colon is > 100 µM; in the assay with K-562 leukemia, > 100 µM; in the assay with MALME-3M melanoma, > 100 µM; with COLO 205 colon, 7.34 µM; in the assay with HS 578T breast, > 100 µM; with DU-145 prostate, > 100 µM.
In the case of `COc1ccc(/C=C/C(=O)C(C)(C)Br)cc1`, the TGI with HCT-116 colon was 9.83 µM; with HL-60(TB) leukemia, 69.2 µM; with K-562 leukemia, > 100 µM; in the assay with MALME-3M melanoma it was 32 µM; in the assay on COLO 205 colon, 29.5 µM; in the assay with HS 578T breast, 37.8 µM. This compound also showed a TGI with DU-145 prostate of 37.2 µM.
Regarding `C/C(=N\n1c(N)c(C#N)c(-c2ccc(Cl)cc2)c(C#N)c1=O)c1ccncc1`, the GI50 in the assay on HCT-116 colon is 11.9 µM; in the assay with K-562 leukemia, > 100 µM; in the assay with MALME-3M melanoma, 7.54 µM; in the assay with COLO 205 colon, > 100 µM; in the assay on OVCAR-4 ovarian, 11.1 µM; in the assay with HS 578T breast, 6.4 µM. In addition, the GI50 in the assay on DU-145 prostate is 11.1 µM. The TGI is 31.7 µM in the assay on HCT-116 colon; > 100 µM in the assay on K-562 leukemia; > 100 µM in the assay on MALME-3M melanoma; > 100 µM with COLO 205 colon; 43.6 µM in the assay with OVCAR-4 ovarian; 75.8 µM with HS 578T breast. The compound further returned a TGI with DU-145 prostate of 44.7 µM.
Regarding `NC(=O)c1cc(I)ccc1NC(=O)COc1ccccc1`, the GI50 is 0.499 µM in the assay with HCT-116 colon; 0.335 µM in the assay with HL-60(TB) leukemia; 0.214 µM in the assay on K-562 leukemia; 7.28 µM in the assay on MALME-3M melanoma; 0.323 µM in the assay on COLO 205 colon; 0.462 µM with HS 578T breast. Also, the GI50 in the assay on DU-145 prostate was 0.457 µM. The TGI with HCT-116 colon is 16.1 µM; in the assay on HL-60(TB) leukemia, 27.8 µM; in the assay on K-562 leukemia, 24.2 µM; in the assay with MALME-3M melanoma, > 100 µM; with COLO 205 colon, 1.97 µM; in the assay with HS 578T breast, 36.1 µM. In the assay with DU-145 prostate, this compound had a TGI of 32.2 µM.
With `CC1(C)C2CCC13C(=O)C1OC3(C2)C2C(=O)c3c(O)cccc3C(=O)C12` (configuration not stated), the GI50 in the assay on HCT-116 colon was 1.09 µM; in the assay on HL-60(TB) leukemia, 0.355 µM; in the assay on K-562 leukemia, 0.703 µM; in the assay with MALME-3M melanoma, 0.29 µM; in the assay on COLO 205 colon it was 4.09 µM; in the assay on HS 578T breast, 0.988 µM. Moreover, the GI50 with DU-145 prostate was 0.196 µM. Moreover, the TGI in the assay on HCT-116 colon came to 2.3 µM; with HL-60(TB) leukemia, 1.2 µM; with K-562 leukemia, 1.79 µM; in the assay with MALME-3M melanoma, 1.02 µM; in the assay with COLO 205 colon, 16.1 µM; with HS 578T breast it was 2.86 µM. This compound also returned a TGI in the assay on DU-145 prostate of 0.386 µM.
Regarding `COc1ccc(C2ONC3=NCCN32)cc1` (configuration not stated), the GI50 in the assay with HCT-116 colon is 40.4 µM; in the assay on K-562 leukemia it was 38.3 µM; in the assay on MALME-3M melanoma, > 100 µM; in the assay with COLO 205 colon, 45.9 µM; with OVCAR-4 ovarian, > 100 µM; in the assay on DU-145 prostate it was 70.3 µM. Also, the TGI in the assay with HCT-116 colon, with K-562 leukemia, in the assay with MALME-3M melanoma, in the assay on COLO 205 colon, in the assay on OVCAR-4 ovarian and in the assay on DU-145 prostate was > 100 µM in each case.
As to `CCCn1cnc2c(SCc3ccccc3)nc(N)nc21`, the GI50 in the assay with HCT-116 colon was 63 µM; in the assay with HL-60(TB) leukemia it was 65.3 µM; with K-562 leukemia it was 56.8 µM; in the assay on MALME-3M melanoma, > 100 µM; in the assay on COLO 205 colon, > 100 µM; in the assay on HS 578T breast it was > 100 µM. In the assay on DU-145 prostate, the GI50 was > 100 µM. Moreover, the TGI in the assay with HCT-116 colon, with HL-60(TB) leukemia, with K-562 leukemia, in the assay with MALME-3M melanoma, in the assay on COLO 205 colon and with HS 578T breast was > 100 µM throughout. In addition, the TGI in the assay with DU-145 prostate is > 100 µM.
Take `O=C(Nc1ccc(Cl)cc1)Nc1ccccc1CNc1nc(Nc2ccc(OCCN3CCCC3)cc2)ncc1Cl`: the GI50 is 0.927 µM with HCT-116 colon; 1.05 µM with HL-60(TB) leukemia; 1.16 µM in the assay with K-562 leukemia; 0.828 µM with MALME-3M melanoma; 0.862 µM in the assay on OVCAR-4 ovarian; 7.02 µM with HS 578T breast. For the same compound, in the assay with DU-145 prostate, the GI50 is 1.22 µM. Moreover, the TGI with HCT-116 colon worked out at 1.85 µM; with HL-60(TB) leukemia, 2.19 µM; in the assay on K-562 leukemia, 2.82 µM; in the assay with MALME-3M melanoma, 1.59 µM; with OVCAR-4 ovarian it was 1.66 µM; with HS 578T breast, 19 µM. In the assay on DU-145 prostate, this compound gave a TGI of 2.79 µM.
For `c1cnc2[nH]cc(-c3csc(-c4cn(CCCN5CCCCC5)c5ccccc45)n3)c2c1`, the GI50 in the assay on HL-60(TB) leukemia is 1.88 µM; with K-562 leukemia, 1.74 µM; with OVCAR-4 ovarian, 1.82 µM; in the assay with HS 578T breast it was 2.34 µM; in the assay on DU-145 prostate, 1.74 µM. The TGI with HL-60(TB) leukemia is 3.74 µM; with K-562 leukemia it was 3.52 µM; in the assay with OVCAR-4 ovarian, 4.19 µM; in the assay on HS 578T breast, 7.22 µM; in the assay on DU-145 prostate, 3.16 µM.
